Key:
[1] = molecular target: SA (Streptomyces avidinii, UniProt P22629); details: cited from earlier work
[2] = molecular target: avidin (Gallus gallus, UniProt P02701); details: cited from earlier work
[3] = tested on: allogeneic (Balb/c) islets in streptozotocin-diabetic C57BL/6 mice; test: Allogeneic islet transplantation under the kidney capsule of diabetic mice; format: in vivo, mouse; details: rapamycin injections 0.2 mg/kg daily 15 doses, without SA-FasL-engineered microgels
Procedure: Islet transplantation. BALB/c pancreatic islets were isolated using Liberase TL as a digestive enzyme (Roche Life Science) and purified by a Ficoll density gradient as previously published. […] To biotinylate islets, overnight cultured islets were incubated in 5 μM EZ-Link Sulfo-NHS-LC-Biotin (Thermo Scientific) for 30 min at room temperature, washed extensively with PBS to remove unbound biotin solution. […] Approximately, 500 islets were co-transplanted with 1000 microgels into streptozotocin diabetic (200 mg/kg i.p., diabetes (>250 mg/dL) confirmed on two consecutive days) C57BL/6 or B6.129(Cg)-Foxp3^tm3(DTR/GFP)Ayr (C57BL/6.FoxP3^EGFP/DTR) recipients, where indicated. For Treg depletion, islet graft recipients were injected i.p. with diphtheria toxin (50 μg/kg body weight) and depletion was confirmed 3 days later in peripheral blood lymphocytes using flow cytometry. Selected groups were also treated i.p. with rapamycin at 0.2 mg/kg daily for 15 doses starting the day of transplantation. Unmodified BALB/c islets co-transplanted with unmodified PEG gels were used as controls. Animals were monitored for blood glucose and >250 mg/dL blood glucose levels for two consecutive daily measurements were considered rejected. […] Blood glucose levels were assessed by tail prick before injection and 10, 20, 30, 60, 90, 120 minutes after injection. […]

avidin, sequence (P02701 25-152): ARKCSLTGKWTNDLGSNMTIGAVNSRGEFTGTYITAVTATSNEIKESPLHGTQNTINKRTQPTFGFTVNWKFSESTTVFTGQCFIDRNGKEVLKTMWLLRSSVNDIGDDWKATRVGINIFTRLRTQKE
SA, sequence (P22629 25-183): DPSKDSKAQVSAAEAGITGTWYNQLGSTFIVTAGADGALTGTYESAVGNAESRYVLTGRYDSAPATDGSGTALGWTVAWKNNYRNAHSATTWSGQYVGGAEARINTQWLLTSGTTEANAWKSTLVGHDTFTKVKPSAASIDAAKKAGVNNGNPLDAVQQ

Row | SMILES | affinity for SA [1] | affinity for avidin [2] | median survival time (MST) of islet grafts [3] [days]
1 | O=C(O)CCCC[C@@H]1SC[C@@H]2NC(=O)N[C@@H]21 [biotin] | 10^13 M^−1 | 10^15 M^−1 | 
2 | CO[C@H]1C[C@@H]2CC[C@@H](C)[C@@](O)(O2)C(=O)C(=O)N2CCCC[C@H]2C(=O)O[C@H]([C@H](C)C[C@@H]2CC[C@@H](O)[C@H](OC)C2)CC(=O)[C@H](C)/C=C(\C)[C@@H](O)[C@@H](OC)C(=O)[C@H](C)C[C@H](C)/C=C/C=C/C=C/1C [rapamycin] |  |  | 36

Reference: patent publication US12673073B2, “FasL-engineered biomaterials with immunomodulatory function” (University of Louisville Research Foundation, Inc., priority 2017, dated 2026)
